“Also recorded” adds a separate entry of the source.
Tests used:
D1 receptor [1] = target: T1, D1 receptor (Homo sapiens, UniProt P21728); test: Serine phosphorylation of D1 receptor (immunoprecipitation / anti-phosphoserine immunoblot) in renal proximal tubule cells; assay type: cell-based; conditions: normotensive subjects
T1 construct: endogenous in cells; host or cells: renal proximal tubule cells in culture from normotensive and hypertensive human subjects
Method: Proximal tubule cells were incubated with vehicle, fenoldopam, sense, scrambled or antisense propyne/phosphorothioate oligonucleotides (5 nM) as described above. The membranes were lyzed with ice cold lysis buffer (PBS with 1% NP40, 0.5% sodium deoxycholate, 0.1% SDS, 1 mM EDTA, 1 mM EGTA, 1 mM sodium vanadate, 1 mM NaF, 1 mM PMSF, 10 μg/ml aprotinin and 10 μg/ml leupeptin). The lysates were incubated with IgG-purified anti D1 receptor antibody on ice for 1 hr and protein-A agarose for 12 hrs with rocking at 4° C. The proteins separated by SDS-polyacrylamide gel electrophoresis were electrophoretically transferred onto nitrocellulose membranes. The transblot sheets blocked with 5-10% nonfat dry milk in 10 mM Tris-HCl, pH 7.5, 150 mM NaCl, and 0.1% Tween-20 were incubated with diluted affinity-purified polyclonal anti-phosphoserine antibody (Zymed Lab, San Francisco, Calif.); Sanada, et al., supra. In some cases, the cells were labeled with ^32P and immunoprecipitated with anti D1 receptor antibody. The autoradiograms and immunoblots, visualized with ECL system (Amersham, Arlington Heights, Il) were quantified by densitometry. Sanada, et al., supra.

[2] = system: GRK activity in renal proximal tubule cells; test: GRK activity (phosphorylation of rhodopsin) in extracts of renal proximal tubule cells; assay type: cell-based, human
From the text: Human kidneys were obtained as fresh surgical specimens from patients who had unilateral nephrectomy due to renal carcinoma. The patient records of the subjects were reviewed and classified into those with either normal blood pressure (n=9) or essential hypertension (n=14). Subjects with systolic blood pressures less than 140 mm Hg and diastolic blood pressures less than 90 mm Hg were considered normotensive. Subjects with systolic blood pressures equal to or greater than 140 mm Hg or diastolic blood pressures equal to or greater than 90 mm Hg and/or on antihypertensive medications were considered hypertensive. […]
GRK activity was measured according to Benovic, Methods Enzymol. […] The gels were subjected to autoradiography, and the phosphorylated rhodopsin was quantified using both densitometry and radioactive counting of the excised bands at the appropriate size. GRK activity was also measured in the presence or absence of a GRK isoform antibody.

[3] = system: D1 receptor / adenylyl cyclase coupling in renal proximal tubule cells; test: cAMP accumulation in renal proximal tubule cells; assay type: cell-based, human; conditions: normotensive versus hypertensive subjects
Method: Cultures of renal proximal tubule cells from histologically-verified normal kidney sections (5×10^5 cells/well in 24 well plastic plates coated with 0.075% Type I collagen) were incubated at 37° C. in […] and grown in a serum-free medium consisting of a 1:1 mixture of Dulbecco's Modified Eagle's medium and Ham's F12 medium supplemented with selenium (5 ng/ml), insulin (5 μg/ml), transferrin (5 μg/ml), hydrocortisone (36 ng/ml), triiodothyronine (4 pg/ml), and epidermal growth factor (10 ng/ml). When sub-confluent (90-95%), the cells were sub-cultured (passages 6-8) for use in experimental protocols using trypsin-EDTA (0.05%, 0.02%). The culture conditions are conducive for growth of human renal proximal tubules that retain characteristics of renal proximal tubule cells, Sanada, et al., J. Invest. Med. 45:277 A (1997).
The cells were washed twice with Dulbecco's phosphate buffered saline (D-PBS), after which 1 mM 3-isobutyl-1-methyl-xanthine was added to each well. […] Then, the cells were washed twice with D-PBS and frozen at −80° C. and the cells were further lysed with 0.1N HCl. cAMP concentration was measured by radioimmunoassay. […] Protein concentration was measured with the BCA protein assay kit (Pierce Chem. Co., Rockford, Ill.). […]

D1 receptor [4] = test: cAMP production in CHO cells transfected with D1 receptor and GRK4γ; assay type: cell-based
Method: The cells were washed twice with Dulbecco's phosphate buffered saline (D-PBS), after which 1 mM 3-isobutyl-1-methyl-xanthine was added to each well. The cells were incubated at 37° C. for 30 minutes with or without drugs: dopamine and the D1-like receptor agonist, fenoldopam, the D1-like receptor antagonist, SCH23390 (Research Biochemicals International, Natick, Mass.), and forskolin (Sigma Chemical Co., St. Louis, Mo.). Then, the cells were washed twice with D-PBS and frozen at −80° C. and the cells were further lysed with 0.1N HCl. cAMP concentration was measured by radioimmunoassay. […] Protein concentration was measured with the BCA protein assay kit (Pierce Chem. Co., Rockford, Ill.).
The rat D1 (rD1) or human D1 (hD1) receptor cDNA was subcloned in the expression vector pPUR (Clontech, Palo Alto, Calif.) or pcDNA3.1/Zeo (Invitrogen, Carlsbad, Calif.), respectively, between EcoRland XbaI sites. The resulting constructs were used to stably transfect CHO cells expressing the pTet-Off regulator plasmid (Clontech, Palo Alto, Calif.) using calcium phosphate. […] GRK4γ and GRK4δcDNAs, obtained from RT/PCR of mRNA from human kidney cortex were subcloned into a pTet-Off response plasmid (pTRE-rD1 or pTRE-hD1 and pTK-Hyg mixed in a 20:1 ratio, respectively) (Clontech, Palo Alto, Calif.).
GRK4δ was used for comparison.

T1 sequence (P21728 whole entry): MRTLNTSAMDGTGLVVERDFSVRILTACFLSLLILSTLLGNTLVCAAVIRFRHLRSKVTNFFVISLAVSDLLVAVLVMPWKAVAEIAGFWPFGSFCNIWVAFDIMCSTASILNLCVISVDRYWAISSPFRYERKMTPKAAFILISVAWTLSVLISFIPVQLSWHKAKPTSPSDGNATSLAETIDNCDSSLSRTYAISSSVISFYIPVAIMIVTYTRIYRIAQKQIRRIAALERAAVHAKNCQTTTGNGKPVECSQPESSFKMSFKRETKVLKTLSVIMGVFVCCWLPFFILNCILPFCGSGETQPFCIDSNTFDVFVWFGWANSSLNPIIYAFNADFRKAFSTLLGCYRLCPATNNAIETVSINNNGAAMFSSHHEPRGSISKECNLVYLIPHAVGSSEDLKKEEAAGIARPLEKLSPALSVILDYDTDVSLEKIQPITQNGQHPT

With `Oc1ccc(C2CNCCc3c2cc(O)c(O)c3Cl)cc1` (centres unmarked) [fenoldopam] the “quantity of serine-phosphorylated D1 receptor” value (D1 receptor [1]) was “increased the quantity of serine-phosphorylated D1 receptor”, the “effect on GRK activity, assessed by the phosphorylation of rhodopsin” value ([2]; renal proximal tubule cells from hypertensive subjects) was “increased GRK activity” and the “effect on GRK activity, assessed by the phosphorylation of rhodopsin” value ([2]; renal proximal tubule cells from normotensive subjects) was “had no effect on GRK activity; also recorded: failed to increase GRK activity”. For the same molecule, the cAMP accumulation [3] was “increased cAMP accumulation to a greater extent in renal proximal tubule cells from normotensive than from hypertensive subjects” and the “selectivity of action on cAMP production” value (D1 receptor [4]) was “selective for the D1 receptor”.

Reference: patent US9074016B2, “G protein-related kinase mutants in essential hypertension” (priority 1998, dated 2015)
